Data as given in patent US5955337A, “DNA encoding GLS1” (Merck & Co., Inc., priority 1996, dated 1999).
Where two headings read alike, the source gives them in different places. *1 amine or outer side, *2 acyl side, *3 side chain or, on linkers, in order; H or OH if unused. Where a SMILES comes first, the peptide text is derived from it. Bridges are numbered along the chain shown (N, C = ends). [ ]: non-standard residue; d: D form. The star is where a group is joined. dOrn(4R-OH,5R-OH) = O=C([C@@H](C[C@@H](O)[C@@H](O)N[*:3])N[*:1])[*:2]; Tetradecanoyl(10R,12S-Me2) = CC[C@H](C)C[C@H](C)CCCCCCCCC(=O)*; hTyr(3S-OH,4S-OH) = N[C@H](C(=O)O)[C@H](O)[C@@H](O)c1ccc(O)cc1; Pro(3S-OH,4S-Me) = C[C@H]1CN[C@H](C(=O)O)[C@H]1O; Gln(3R-OH) = NC(=O)C[C@@H](O)[C@H](N)C(=O)O; Hyp = O=C(O)[C@@H]1C[C@@H](O)CN1

What was measured:
Pneumocystis carinii = settings: rat model of P. carinii pneumonia; Schmatz et al. 1990; cited from earlier work
[1] = test system: Strain MS1 (gls1-1 mutant); experiment: Effect of antifungal drugs on strain MS1 relative to wild-type parental strain; type: cell-based, Saccharomyces cerevisiae; settings: FIG. 2, FIG. 10
Method: To quantitate the echinocandin sensitivity/resistance of the mutant strains, yeast cells grown to log phase were inoculated into 2 ml SC broth and incubated overnight at 28° C. A flat bottom 96-well microtiter plate was seeded with 75 μl of SC medium in columns 2 through 12. To column 1, 150 μl medium was added. Echinocandin (L-733,560) was prepared at a concentration of 30 μg/ml solution in sterile distilled water. An aliquot (75 μl) of echinocandin solution was added to column 3, and 75 μl from column 3 was transferred to column 4, followed by mixing of the contents of each well. 75 μl from column 4 was transferred into column 5, and the serial dilution was carried on to column 12 from which a 75 μl was discarded. A dilution of 6×10^5 cells/ml in URA drop out medium was prepared from the yeast strains. 75 μl cell suspension was then added to columns 2 through 12 giving 4.5×10^4 cells/well. The plates were incubated at 28° C. for 24-48 hr. Growth in the presence and absence of echinocandin was measured by absorbance at 600 nm.

MS1 (gls1-1) = experiment: Zone of growth inhibition assay, gls1-1 mutant; type: cell-based, Saccharomyces cerevisiae; settings: μg/Disc: L,733-560 20; L-688-786 10; Aculeacin 50; Papulacandin 50; Nikkomycin Z 10; Rapamycin 12.5
Text: (§1) Mutations of the GLS1 gene, including but not limited to gls1-1 (strain MS1), gls1-2 (strain MS41) and gls1-3 (strain MS43), or disruptions or deletions of GLS1, are useful for screening for glucan synthase inhibitors. Such a screen relies on the increase in echinocandin-resistance and in papulacandin sensitivity of such mutants compared to an GLS1 wild-type strain. Any technique capable of detecting this difference in sensitivity can be used. A zone of inhibition assay on agar plates is particularly useful.
(§2) The GLS1 and the fks1-4 mutants can be incorporated into an assay to screen and classify antifungal compounds with chitin and glucan synthase inhibitory effects, based on their differential resistance/sensitivity to the echinocandins, papulacandin and Nikkomycin Z. The data from this assay and the sizes of the zones of growth inhibition in millimeter is given in the following table: […]

MS14 (fks1-4) = experiment: Zone of growth inhibition assay, fks1-4 mutant; type: cell-based, Saccharomyces cerevisiae; settings: μg/Disc: L,733-560 20; L-688-786 10; Aculeacin 50; Papulacandin 50; Nikkomycin Z 10; Rapamycin 12.5
Text: as §1, §2

X2180 (WT) = experiment: Zone of growth inhibition assay, wild-type strain; type: cell-based, Saccharomyces cerevisiae; settings: μg/Disc: L,733-560 20; L-688-786 10; Aculeacin 50; Papulacandin 50; Nikkomycin Z 10; Rapamycin 12.5
Text: as §1, §2

1,3-β-glucan synthase = biological target: T1, 1,3-β-glucan synthase (Saccharomyces cerevisiae, UniProt P06780); experiment: biochemical
T1 construct: Membrane extracts were prepared from mutant and wild-type cells grown to logarithmic phase; endogenous in cells; host or cells: S. cerevisiae X2180-1A (wild-type) and MS1 (gls1-1 mutant), washed 100,000×g membrane pellet
Method: Membrane extracts were prepared from mutant and wild-type cells grown to logarithmic phase (Kang and Cabib, PNAS, 83, 5808-5812, 1986). After homogenization with glass beads, unbroken cells and debris were removed by low speed centrifugation (1,000×g for 5 min). The supernatant fluids were centrifuged at 100,000×g for 60 min, and the resulting pellets were washed with 2.5 ml (per gram of wet cells) of buffer containing 0.05 M potassium phosphate (pH 7.5), 0.5 mM DTT, and 1.0 mM PMSF. The washed pellet was resuspended in the same buffer containing 5% glycerol. This protein extract served as the source for both 1,3-β-glucan synthase and the chitin synthases utilized in the enzymatic assays.
Protein concentrations were determined using BCA protein assay reagent kit (Pierce Corp.), utilizing bovine serum album (BSA; Pierce Corp.) as a standard. The 1,3-β-glucan synthase reactions were performed as previously described (Cabib, E., and M. S. Kang. 1987. Fungal 1,3-b-glucansynthase, Methods Enzymol. 138: 637-642). Briefly, an […] reaction contained 125 mM Tris HCL (pH7.5), 0.25 mM dithiothretol, 30 mM KF, 0.3 M glycerol, 0.23% BSA, 0.125 mM PMSF, 2 mM UDP-glucose, […] guanosine 5'-(g-thio) triphosphate (GTPγS), 0.1 nmol UDP-[^3 H] glucose (Amersham; 4.5 Ci/mmol;) plus […] of membrane protein extract. The reactions were performed in the presence of 0.0, 0.1, 0.5, 5, 25 and 50 mM L, 733-560 for dose titration of the drug. Following incubation at 25° C. for 150 minutes, the [^3 H]-glucose incorporated into trichloroacetic acid-insoluble material was collected onto glass fiber filters (102×258 mm) and measured using a betaplate liquid scintillation counter (Cambridge Technologies Inc.; series 2800 harvester) at 25% efficiency. The product of such reactions was verified by solubilization by laminarinase (Sigma, #L9259) but not by α-amylase (Sigma, #A2643).
To study activation of 1,3-β-glucan synthesis by GTPγS incorporation of UDP-glucose into 1,3-β-D glucans, in absence and in presence of 3.3 uM GTPγS was measured. […]

[2] = test system: fks1-4 mutant (strain MS14); experiment: Resistance/sensitivity of fks1-4 mutant relative to wild-type; type: cell-based, Saccharomyces cerevisiae; settings: fks1-4 mutant vs wild-type
Text: as §2

T1 sequence (P38631 whole entry): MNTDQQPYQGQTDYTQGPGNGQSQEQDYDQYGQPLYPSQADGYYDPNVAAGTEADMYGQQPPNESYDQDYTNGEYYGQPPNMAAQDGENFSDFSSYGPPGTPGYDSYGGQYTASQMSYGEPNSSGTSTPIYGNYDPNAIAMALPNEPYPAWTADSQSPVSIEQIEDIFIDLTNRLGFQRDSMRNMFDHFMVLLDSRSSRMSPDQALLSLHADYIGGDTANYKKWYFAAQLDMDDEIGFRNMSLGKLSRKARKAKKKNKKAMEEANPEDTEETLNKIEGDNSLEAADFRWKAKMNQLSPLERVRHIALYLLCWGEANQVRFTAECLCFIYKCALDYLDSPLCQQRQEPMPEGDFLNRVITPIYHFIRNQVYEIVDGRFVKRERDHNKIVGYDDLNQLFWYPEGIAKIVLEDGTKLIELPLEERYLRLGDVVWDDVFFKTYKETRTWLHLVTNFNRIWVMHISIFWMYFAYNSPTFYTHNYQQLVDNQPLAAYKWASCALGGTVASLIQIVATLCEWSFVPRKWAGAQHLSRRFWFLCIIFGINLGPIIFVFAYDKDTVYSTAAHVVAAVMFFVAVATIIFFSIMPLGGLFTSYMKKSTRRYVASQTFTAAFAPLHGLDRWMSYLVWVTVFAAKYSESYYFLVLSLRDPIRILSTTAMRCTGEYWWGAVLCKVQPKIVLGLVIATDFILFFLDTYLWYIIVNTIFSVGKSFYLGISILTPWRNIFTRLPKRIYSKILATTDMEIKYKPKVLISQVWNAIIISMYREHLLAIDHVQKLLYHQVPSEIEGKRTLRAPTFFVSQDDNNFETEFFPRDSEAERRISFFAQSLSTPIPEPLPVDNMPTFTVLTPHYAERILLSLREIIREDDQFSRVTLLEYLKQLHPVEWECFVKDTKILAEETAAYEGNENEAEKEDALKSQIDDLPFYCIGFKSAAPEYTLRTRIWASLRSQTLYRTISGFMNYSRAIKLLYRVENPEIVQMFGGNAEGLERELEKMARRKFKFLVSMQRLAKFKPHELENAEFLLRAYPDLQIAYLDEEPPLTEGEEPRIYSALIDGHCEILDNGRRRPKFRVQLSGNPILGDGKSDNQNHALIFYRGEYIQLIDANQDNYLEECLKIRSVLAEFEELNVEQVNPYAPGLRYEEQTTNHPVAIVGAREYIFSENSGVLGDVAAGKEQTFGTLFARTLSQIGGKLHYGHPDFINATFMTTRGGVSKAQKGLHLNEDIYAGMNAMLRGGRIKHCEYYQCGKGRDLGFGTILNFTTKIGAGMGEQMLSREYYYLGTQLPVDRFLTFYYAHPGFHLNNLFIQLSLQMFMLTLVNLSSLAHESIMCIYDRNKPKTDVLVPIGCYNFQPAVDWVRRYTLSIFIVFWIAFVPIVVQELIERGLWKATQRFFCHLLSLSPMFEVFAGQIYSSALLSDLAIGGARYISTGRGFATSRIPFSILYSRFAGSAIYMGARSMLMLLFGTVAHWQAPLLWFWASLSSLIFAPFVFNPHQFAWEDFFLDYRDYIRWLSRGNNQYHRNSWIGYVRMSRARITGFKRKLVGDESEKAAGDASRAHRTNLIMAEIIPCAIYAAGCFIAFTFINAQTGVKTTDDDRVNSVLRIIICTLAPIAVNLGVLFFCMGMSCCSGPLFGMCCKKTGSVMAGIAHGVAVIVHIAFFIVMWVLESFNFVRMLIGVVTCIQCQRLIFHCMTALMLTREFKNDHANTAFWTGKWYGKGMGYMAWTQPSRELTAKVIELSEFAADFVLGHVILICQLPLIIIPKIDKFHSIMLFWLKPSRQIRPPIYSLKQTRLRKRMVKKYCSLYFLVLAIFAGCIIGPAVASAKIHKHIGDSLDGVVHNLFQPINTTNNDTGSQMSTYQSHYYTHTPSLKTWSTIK
T1 sequence (P06780 2-206): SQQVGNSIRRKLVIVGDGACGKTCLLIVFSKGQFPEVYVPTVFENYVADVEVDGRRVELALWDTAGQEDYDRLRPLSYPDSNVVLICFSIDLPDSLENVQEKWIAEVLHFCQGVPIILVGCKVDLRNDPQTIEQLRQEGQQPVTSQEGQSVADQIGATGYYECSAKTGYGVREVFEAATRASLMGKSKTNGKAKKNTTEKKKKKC

Molecule	reduction of the number of cysts in the lungs of infected rats (Pneumocystis carinii)	sensitivity/resistance of MS1 cells compared with wild-type parental strain [1]	size of the zone of growth inhibition, MS1 (gls1-1) (MS1 (gls1-1)) [millimeter]	size of the zone of growth inhibition, MS14 (fks1-4) (MS14 (fks1-4)) [millimeter]	size of the zone of growth inhibition, X2180 (WT) (X2180 (WT)) [millimeter]	response of MS1 mutant enzymatic activity to increasing concentrations of GTPγS (1,3-β-glucan synthase; MS1 mutant membranes, FIG. 5)	fold induction at 3.3 µM (1,3-β-glucan synthase; read-out: stimulation of glucan synthesis by GTPγS, MS1 mutant enzyme)	fold induction at 3.3 µM (1,3-β-glucan synthase; read-out: stimulation of glucan synthesis by GTPγS, first value)	fold more sensitive than wild-type, fks1-4 mutant (MS14) [2] [fold]
CC[C@H](C)C[C@H](C)CCCCCCCCC(=O)N[C@@H]1C[C@@H](O)[C@@H](O)NC(=O)[C@@H]2[C@@H](O)[C@@H](C)CN2C(=O)[C@H]([C@H](O)CC(N)=O)NC(=O)[C@H]([C@H](O)[C@@H](O)c2ccc(O)cc2)NC(=O)[C@@H]2C[C@@H](O)CN2C(=O)[C@H]([C@@H](C)O)NC1=O [L-671,329] ({Tetradecanoyl(10R,12S-Me2)}-[dOrn(4R-OH,5R-OH)]T[Hyp][hTyr(3S-OH,4S-OH)][Gln(3R-OH)][Pro(3S-OH,4S-Me)]; lactam 1-C)	effective in reducing the number of cysts	–	–	–	–	–	–	–	–
CO[C@H]1C[C@@H]2CC[C@@H](C)[C@@](O)(O2)C(=O)C(=O)N2CCCC[C@H]2C(=O)O[C@H]([C@H](C)C[C@@H]2CC[C@@H](O)[C@H](OC)C2)CC(=O)[C@H](C)/C=C(\C)[C@@H](O)[C@@H](OC)C(=O)[C@H](C)C[C@H](C)/C=C/C=C/C=C/1C [Rapamycm, rapamycin]	–	more sensitive	13	0.0	0.0	–	–	–	–
Nc1nc2c(ncn2[C@@H]2O[C@H](COP(=O)(O)OP(=O)(O)OP(O)(O)=S)[C@@H](O)[C@H]2O)c(=O)[nH]1 [GTPγS, guanosine 5'-(g-thio) triphosphate]	–	–	–	–	–	responded rather poorly	6	~19	–
CCC(O)/C=C/C=C/C=C/C(=O)OC[C@H]1O[C@@H](O[C@H]2[C@H](OC(=O)/C=C/C=C/CC(O)/C(C)=C/C=C/CCC(C)CC)[C@@H](O)[C@@]3(OCc4cc(O)cc(O)c43)O[C@@H]2CO)[C@H](O)[C@@H](O)[C@H]1O (stereo partly shown) [Papulacandin]	–	more sensitive	20	10	10	–	–	–	–
Aculeacin	–	–	9	0.0	15	–	–	–	–
C[C@@H]([C@H](N)C(=O)N[C@H](C(=O)O)[C@H]1O[C@@H](n2ccc(=O)[nH]c2=O)[C@H](O)[C@@H]1O)[C@H](O)c1ccc(O)cn1 [Nikkomycin Z]	–	–	0.0	30.0	0.0	–	–	–	1000
